One assay has as its system UACC-257. Description: NCI-60 anticancer screen (SRB; single dose and five doses). The settings on record: Homo sapiens, UACC-257, 48 h, read-out: Growth Percentage.
The subject of the next assay is 786-0. Described as above. Conditions: Homo sapiens, 786-0, 48 h, read-out: Growth Percentage.
The subject of another assay is SF-268. Described as above. The settings on record: Homo sapiens, SF-268, 48 h, read-out: Growth Percentage.
In the next assay the test system is SNB-75. Described as above. The settings on record: Homo sapiens, SNB-75, 48 h, read-out: Growth Percentage.
For a further assay, the system named is OVCAR-3. Description: cells. Conditions: Homo sapiens, OVCAR-3, 48 h, read-out: Growth Percentage.
The next assay has as its system PC-3. As to the kind of experiment: NCI-60 anticancer screen (SRB; single dose and five doses). The settings on record: Homo sapiens, PC-3, 48 h, read-out: Growth Percentage.
For the next assay, the system named is MDA-MB-468. Described as above. Type of assay: cell-based, human. Conditions: Homo sapiens, 48 h; MDA-MB-468; dose of 10 μM; read-out: Growth Percentage. On the procedure: The methodology of the NCI anticancer screening has been described in detail elsewhere (http://www.dtp.nci.nih.gov). For detailed information, see Appendix A in the Supplementary Materials.
4.2.1. Screening of the anticancer activity against a panel of 60 cell Lines.
The methodology of the NCI anticancer screening has been described in detail elsewhere (http://www.dtp.nci.nih.gov.) Briefly, the primary anticancer assay was performed at approximately 60 human tumor cell lines panel derived from nine neoplastic diseases, in accordance with the protocol of the Drug Evaluation Branch, National Cancer Institute, Bethesda. Tested compounds were added to the culture at a single concentration (10μM) and the cultures were incubated for 48 h. End -point determinations were made with a protein binding dye, SRB. Results for each tested compound was reported as the percent of growth of the treated cells when compared to the untreated control cells. The percentage growth was evaluated spectrophotometrically versus controls not treated with test agents. […]

For another assay, the system named is NCI-H322M. The description is as above. The settings on record: Homo sapiens, 48 h, read-out: Growth Percentage.
The test system of a further assay is NCI-H522. The description is as above. The settings on record: Homo sapiens, NCI-H522, 48 h, read-out: Growth Percentage.
A further assay relates to BT-549. The description is as above. Conditions: Homo sapiens, BT-549, 48 h, read-out: Growth Percentage.
In the next assay the test system is ACHN. The description is as above. The settings on record: Homo sapiens, 48 h, read-out: Growth Percentage.
In a further assay the test system is MALME-3M. Described as above. Conditions: Homo sapiens, 48 h, read-out: Growth Percentage.
A further assay has as its system A549/ATCC. Described as above. Conditions: Homo sapiens, A549, 48 h, read-out: Growth Percentage.
For another assay, the system named is SN12C. The assay is described as above. Conditions: Homo sapiens, 48 h, read-out: Growth Percentage.
Another assay has as its system NCI-H460. Described as above. The settings on record: Homo sapiens, NCI-H460, 48 h, read-out: Growth Percentage.
The subject of the next assay is SW-620. Described as above. Conditions: Homo sapiens, SW-620, 48 h, read-out: Growth Percentage.
For a further assay, the system named is A498. The description is as above. Conditions: Homo sapiens, A498, 48 h, read-out: Growth Percentage, A498; dose of 10 μM.
A further assay has as its system RXF 393. Described as above. The settings on record: Homo sapiens, RXF 393, 48 h, read-out: Growth Percentage.
A further assay relates to SK-MEL-2. The assay is described as above. Conditions: Homo sapiens, SK-MEL-2, 48 h, read-out: Growth Percentage.
The test system of another assay is HL-60(TB). Described as above. Conditions: Homo sapiens, HL-60, 48 h, read-out: Growth Percentage.
The test system of the next assay is MOLT-4. The description is as above. The settings on record: Homo sapiens, MOLT-4, 48 h, read-out: Growth Percentage.
The test system of a further assay is HCT-15. Described as above. The settings on record: Homo sapiens, HCT-15, 48 h, read-out: Growth Percentage.
The test system of another assay is NCI-H226. The assay is described as above. The settings on record: Homo sapiens, NCI-H226, 48 h, read-out: Growth Percentage.
The subject of a further assay is M14. Described as above. Conditions: Homo sapiens, M14, 48 h, read-out: Growth Percentage.
For the next assay, the system named is COLO 205. The assay is described as above. Conditions: Homo sapiens, COLO 205, 48 h, read-out: Growth Percentage.

As for `Cc1[nH]c(=S)sc1C(=O)/C=C/c1ccccc1` [2a, (E)-1-(4-Methyl-2-Thioxo-2,3-Dihydrothiazol-5-yl)-3-Phenylprop-2-En-1-One], the activity at 10 µM in the assay with UACC-257 is 76.2%; with 786-0, 68.1%; with SF-268, 69.8%; in the assay with SNB-75, 92.7%; in the assay with OVCAR-3, 42.7%; in the assay on PC-3, 77.6%. Also, the activity at 10 µM with MDA-MB-468 was found to be 20.8%; with NCI-H322M it was 66.5%; in the assay on NCI-H522, 71.7%; in the assay on BT-549, 68.8%; with ACHN, 71.8%; with MALME-3M it was 87.8%. Moreover, the activity at 10 µM with A549/ATCC turned out to be 82.3%; in the assay on SN12C, 66.1%; with NCI-H460, 56.7%; in the assay on SW-620 it was 69.1%; with A498 it was 106%; in the assay on RXF 393, 46.4%. Also, the activity at 10 µM came out at 68.2% with SK-MEL-2; 49.6% in the assay on HL-60(TB); 74.2% in the assay with MOLT-4; 35% with HCT-15; 96.5% in the assay with NCI-H226; 77.1% in the assay with M14.
As to `COc1cccc(/C=C/C(=O)c2sc(=S)[nH]c2C)c1OC` [2m, (E)-3-(2,3-Dimethoxyphenyl)-1-(4-Methyl-2-Thioxo-2,3-Dihydrothiazol-5-yl)Prop-2-En-1-One], the activity at 10 µM with UACC-257 was 35.4%; with SF-268, 54%; in the assay with SNB-75, 50.4%; in the assay on OVCAR-3, 24.3%; in the assay with PC-3, 41.6%; with MDA-MB-468, 41.1%. Further, the activity at 10 µM is 62.8% in the assay with NCI-H322M; 32.9% in the assay on NCI-H522; 71% in the assay on BT-549; 52.5% with ACHN; 97.1% in the assay on MALME-3M; 43.1% in the assay with A549/ATCC. Moreover, the activity at 10 µM worked out at 45% in the assay on SN12C; 40.1% with NCI-H460; 47.9% with SW-620; 109% in the assay on A498; 103% in the assay with COLO 205; 52.5% in the assay on RXF 393. Moreover, the activity at 10 µM was 94.2% in the assay on SK-MEL-2; 12.7% with HL-60(TB); 36.8% in the assay on MOLT-4; 32.7% in the assay with HCT-15; 90.8% in the assay with NCI-H226; 54% with M14.
Turning to `COc1ccc(/C=C/C(=O)c2sc(=S)[nH]c2C)cc1` [2l, (E)-3-(4-Methoxyphenyl)-1-(4-Methyl-2-Thioxo-2,3-Dihydrothiazol-5-yl)Prop-2-En-1-One], the activity at 10 µM in the assay with UACC-257 turned out to be 68%; in the assay on 786-0 it was 78.1%; with SF-268, 81%; in the assay with SNB-75 it was 98%; in the assay with OVCAR-3, 66.9%; with PC-3 it was 82.2%. For the same compound, the activity at 10 µM in the assay on MDA-MB-468 is 15.1%; with NCI-H322M, 92.4%; in the assay with NCI-H522 it was 61.4%; with BT-549, 75%; in the assay with ACHN it was 85.6%; with MALME-3M it was 90%. For the same compound, the activity at 10 µM was 82.9% in the assay with A549/ATCC; 74.9% in the assay on SN12C; 85.6% with NCI-H460; 75.3% with SW-620; 120% with A498; 77.5% in the assay on RXF 393. Moreover, the activity at 10 µM with SK-MEL-2 is 80.3%; in the assay with HL-60(TB), 58.5%; in the assay on MOLT-4, 81.5%; in the assay with HCT-15, 50.8%; in the assay on NCI-H226, 93.6%; in the assay with M14 it was 87.5%.
